Read-outs that look alike come from different tables or passages of the source.
Molecular target: TAFIa (Homo sapiens (Human), UniProt Q96IY4)
Assay: Determination of TAFIa enzyme inhibitory activity (FAAK substrate degradation)
Format: biochemical
Method: Determination of TAFIa Enzyme Inhibitory Activity
HEPES buffered saline (20 mM HEPES, 150 mM NaCl, pH 7.4; hereinafter, referred to as HBS) was used in the preparation of a reaction solution. To 12 μL of a 250 μg/mL TAFI solution, 30 μL of an HBS solution containing 4 U/mL human thrombin, 12 U/mL rabbit lung thrombomodulin, and 12 mM CaCl2 was added, and the mixture was gently stirred. Then, TAFI was activated at room temperature. Ten minutes later, thrombin was neutralized by the addition of 10 μL of 100 μM PPACK (thrombin inhibitor) to terminate the activation of TAFI. The formed TAFIa was stored in ice and diluted immediately before use in determination with 2050 μL of an HBS solution containing BSA (bovine serum albumin) adjusted to 0.1% in terms of the final concentration.
(2) Determination of TAFIa Inhibitory Activity
A test substance was dissolved in HBS to prepare a 10-fold dilution series of evaluation concentrations. 80 μL of the TAFIa solution and 10 μL of the test substance were added to each well of a 96-well plate and mixed by shaking for 10 minutes. 10 μL of furylacryloyl-alanyl-lysine (FAAK) adjusted to 5 mg/mL was added to each well, and the change in the absorbance of this mixed solution at 330 nm was read for 30 minutes to determine the degradation rate of the substrate.
(3) Calculation of Inhibitory Activity IC50
The degradation rate of the substrate in each well was applied to a standard curve prepared using the dilution series of the TAFIa solution to calculate TAFIa activity.

[1] = TAFI activated with human thrombin / rabbit lung thrombomodulin, substrate FAAK, absorbance at 330 nm, read-out: TAFIa IC50

Chain of TAFIa (Q96IY4 115-423): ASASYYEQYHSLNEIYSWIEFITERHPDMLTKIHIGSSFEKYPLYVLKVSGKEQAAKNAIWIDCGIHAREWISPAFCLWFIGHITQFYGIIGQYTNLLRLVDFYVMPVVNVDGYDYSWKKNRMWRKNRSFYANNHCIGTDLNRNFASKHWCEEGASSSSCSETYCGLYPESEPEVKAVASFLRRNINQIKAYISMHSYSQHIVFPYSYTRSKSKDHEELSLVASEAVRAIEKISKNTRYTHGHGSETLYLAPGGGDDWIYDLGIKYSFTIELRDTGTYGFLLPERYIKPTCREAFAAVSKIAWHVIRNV

| SMILES | IC50 [1] [nM] | other results |
| --- | --- | --- |
| NCCC[C@H]1C[C@]1(C(=O)O)c1cn(-c2ncccn2)cn1 (relative stereo) [Example 39, (1R*,2S*)-2-(3-Aminopropyl)-1-(1-pyrimidin-2-yl-1H-imidazol-4-yl)cyclopropanecarboxylic acid] | 30 |  |
| NCCC[C@H]1C[C@]1(C(=O)O)c1cn(-c2ccc3occc3c2)cn1 (relative stereo) [Example 43, (1R*,2S*)-2-(3-Aminopropyl)-1-[1-(1-benzofuran-5-yl)-1H-imidazol-4-yl]cyclopropanecarboxylic acid] | 26 |  |
| NCCC[C@H]1C[C@]1(C(=O)O)c1cn(-c2cc3ccccc3cn2)cn1 (relative stereo) [Example 46, (1R*,2S*)-2-(3-Aminopropyl)-1-(1-isoquinolin-3-yl-1H-imidazol-4-yl)cyclopropanecarboxylic acid] | 16 |  |
| Cc1ccc(-n2cnc([C@@]3(C(=O)O)C[C@@H]3CCCN)c2)nc1 (relative stereo) [Example 49, (1R*,2S*)-2-(3-Aminopropyl)-1-[1-(5-methylpyridin-2-yl)-1H-imidazol-4-yl]cyclopropanecarboxylic acid] | 18 |  |
| CC(C)(CN)C[C@@H]1C[C@]1(C(=O)O)c1cn(-c2ccccc2)cn1 (relative stereo) [Example 52, (1R*,2R*)-2-(3-Amino-2,2-dimethylpropyl)-1-(1-phenyl-1H-imidazol-4-yl]cyclopropanecarboxylic acid] | > 300 |  |
| CC(C)(C)CCn1cnc(C2(C(=O)O)CC2CCCN)c1 (single isomer, unassigned) [Example 1, (1R*,2S*)-2-(3-Aminopropyl)-1-[1-(3,3-dimethylbutyl)-1H-imidazol-4-yl]cyclopropanecarboxylic acid] |  | IC50 (TAFIa IC50): 8.7 nM |
| CC(C)(C)CCn1cnc(C2(C(=O)O)CC2CCCN)c1 (single isomer, unassigned) [Example 2, (1R*,2R*)-2-(3-Aminopropyl)-1-[1-(3,3-dimethylbutyl)-1H-imidazol-4-yl]cyclopropanecarboxylic acid] |  | IC50 (TAFIa IC50): 420 nM |
| CC(C)(C)CCn1cnc([C@@]2(C(=O)O)C[C@@H]2CCCN)c1 [Example 28, (1R,2S)-2-(3-Aminopropyl)-1-[1-(3,3-dimethylbutyl)-1H-imidazol-4-yl]cyclopropanecarboxylic acid] |  | IC50 (read-out: TAFIa IC50): 4.5 nM |
| NCCC[C@@H]1C[C@@]1(C(=O)O)c1cn(-c2ccccc2)cn1 [Example 29, (1S,2R)-2-(3-Aminopropyl)-1-(1-phenyl-1H-imidazol-4-yl)cyclopropanecarboxylic acid] | > 10000 |  |
| NCCC[C@H]1C[C@]1(C(=O)O)c1cn(-c2ccccc2)cn1 [Example 30, (1R,2S)-2-(3-Aminopropyl)-1-(1-phenyl-1H-imidazol-4-yl)cyclopropanecarboxylic acid] | 13 |  |
| NCCC[C@H]1C[C@]1(C(=O)O)c1cn(-c2ccccc2)cn1 [Example 31, (1R,2S)-2-(3-Aminopropyl)-1-(1-phenyl-1H-imidazol-4-yl)cyclopropanecarboxylic acid di-p-toluenesulfonate] |  | IC50 (TAFI activated with human thrombin / rabbit lung thrombomodulin, substrate FAAK, absorbance at 330 nm, di-p-toluenesulfonate, read-out: TAFIa IC50): 15 nM |
| NCCC[C@H]1C[C@]1(C(=O)O)c1cn(-c2ccccn2)cn1 [Example 48, (1R,2S)-2-(3-Aminopropyl)-1-(1-pyridin-2-yl-1H-imidazol-4-yl)cyclopropanecarboxylic acid] | 11 |  |
| C[C@H](CN)C[C@H]1C[C@]1(C(=O)O)c1cn(-c2ccccc2)cn1 [Example 51, (1R,2S)-2-[(2S)-3-Amino-2-methylpropyl]-1-(1-phenyl-1H-imidazol-4-yl)cyclopropanecarboxylic acid] | 35 |  |
| CCC(CN)CC1C[C@]1(C(=O)O)c1cn(-c2ccccc2)cn1 (stereo partly drawn) [Example 53, (1R,2S)-2-[(2-Aminomethyl)butyl]-1-(1-phenyl-1H-imidazol-4-yl]cyclopropanecarboxylic acid] |  | IC50 (read-out: TAFIa IC50): 13 nM |
| C[C@@H](CN)C[C@H]1C[C@]1(C(=O)O)c1cn(-c2ccccn2)cn1 [Example 54, (1R,2S)-2-[(2R)-3-Amino-2-methylpropyl]-1-(1-pyridin-2-yl-1H-imidazol-4-yl]cyclopropanecarboxylic acid] | 11 |  |
| C[C@@H](CN)C[C@@H]1C[C@@]1(C(=O)O)c1cn(-c2ccccn2)cn1 [Example 55, (1S,2R)-2-[(2R)-3-Amino-2-methylpropyl]-1-(1-pyridin-2-yl-1H-imidazol-4-yl]cyclopropanecarboxylic acid] | > 3000 |  |
| C[C@H](CN)C[C@H]1C[C@]1(C(=O)O)c1cn(-c2ccccn2)cn1 [Example 56, (1R,2S)-2-[(2S)-3-Amino-2-methylpropyl]-1-(1-pyridin-2-yl-1H-imidazol-4-yl]cyclopropanecarboxylic acid] | 33 |  |
| C[C@H](CN)C[C@@H]1C[C@@]1(C(=O)O)c1cn(-c2ccccn2)cn1 [Example 57, (1S,2R)-2-[(2S)-3-Amino-2-methylpropyl]-1-(1-pyridin-2-yl-1H-imidazol-4-yl]cyclopropanecarboxylic acid] | 490 |  |
| Cc1ccc(-n2cnc([C@@]3(C(=O)O)C[C@@H]3C[C@@H](C)CN)c2)nc1 [Example 58, (1R,2S)-2-[(2R)-3-Amino-2-methylpropyl]-1-[1-(5-methylpyridin-2-yl)-1H-imidazol-4-yl]cyclopropanecarboxylic acid] | 8.7 |  |
| Cc1ccc(-n2cnc([C@]3(C(=O)O)C[C@H]3C[C@@H](C)CN)c2)nc1 [Example 59, (1S,2R)-2-[(2R)-3-Amino-2-methylpropyl]-1-[1-(5-methylpyridin-2-yl)-1H-imidazol-4-yl]cyclopropanecarboxylic acid] | 500 |  |
| CC[C@@H](CN)C[C@H]1C[C@]1(C(=O)O)c1cn(-c2ccccn2)cn1 [Example 60, (1R,2S)-2-[(2R)-2-(Aminomethyl)butyl]-1-(1-pyridin-2-yl-1H-imidazol-4-yl)cyclopropanecarboxylic acid] | 8.3 |  |
| CC[C@@H](CN)C[C@@H]1C[C@@]1(C(=O)O)c1cn(-c2ccccn2)cn1 [Example 61, (1S,2R)-2-[(2R)-2-(Aminomethyl)butyl]-1-(1-pyridin-2-yl-1H-imidazol-4-yl)cyclopropanecarboxylic acid] | 360 |  |

Second part, led by results:

| IC50 [1] [nM] | SMILES | other results |
| --- | --- | --- |
| 29 | N#Cc1ccc(-n2cnc([C@@]3(C(=O)O)C[C@@H]3CCCN)c2)cc1 (relative stereo) [Example 40, (1R*,2S*)-2-(3-Aminopropyl)-1-[1-(4-cyanophenyl)-1H-imidazol-4-yl]cyclopropanecarboxylic acid] |  |
| 19 | NCCC[C@H]1C[C@]1(C(=O)O)c1cn(-c2ccc(F)cn2)cn1 (relative stereo) [Example 41, (1R*,2S*)-2-(3-Aminopropyl)-1-[1-(5-fluoropyridin-2-yl)-1H-imidazol-4-yl]cyclopropanecarboxylic acid] |  |
| 58 | NCCC[C@H]1C[C@]1(C(=O)O)c1cn(-c2ccc3ccccc3n2)cn1 (relative stereo) [Example 42, (1R*,2S*)-2-(3-Aminopropyl)-1-(1-quinolin-2-yl-1H-imidazol-4-yl)cyclopropanecarboxylic acid] |  |
| 16 | COc1ccc(-n2cnc([C@@]3(C(=O)O)C[C@@H]3CCCN)c2)nc1 (relative stereo) [Example 44, (1R*,2S*)-2-(3-Aminopropyl)-1-[1-(5-methoxypyridin-2-yl)-1H-imidazol-4-yl]cyclopropanecarboxylic acid] |  |
| 63 | NCCC[C@H]1C[C@]1(C(=O)O)c1cn(-c2ccc(Cl)cn2)cn1 (relative stereo) [Example 45, (1R*,2S*)-2-(3-Aminopropyl)-1-[1-(5-chloropyridin-2-yl)-1H-imidazol-4-yl]cyclopropanecarboxylic acid] |  |
| 54 | NCCC[C@H]1C[C@]1(C(=O)O)c1cn(-c2cccc3ccccc23)cn1 (relative stereo) [Example 47, (1R*,2S*)-2-(3-Aminopropyl)-1-[1-(1-naphthyl)-1H-imidazol-4-yl]cyclopropanecarboxylic acid] |  |
| 19 | Cc1ccnc(-n2cnc([C@@]3(C(=O)O)C[C@@H]3CCCN)c2)c1 (relative stereo) [Example 64, (1R*,2S*)-2-(3-Aminopropyl)-1-[1-(4-methylpyridin-2-yl)-1H-imidazol-4-yl]cyclopropanecarboxylic acid] |  |
| 73 | Cc1cccc(-n2cnc([C@@]3(C(=O)O)C[C@@H]3CCCN)c2)n1 (relative stereo) [Example 65, (1R*,2S*)-2-(3-Aminopropyl)-1-[1-(6-methylpyridin-2-yl)-1H-imidazol-4-yl]cyclopropanecarboxylic acid] |  |
| > 100 | CC(C)(C)CCn1cnc([C@]2(C(=O)O)C[C@H]2CCCN)c1 [Example 27, (1S,2R)-2-(3-Aminopropyl)-1-[1-(3,3-dimethylbutyl)-1H-imidazol-4-yl]cyclopropanecarboxylic acid] |  |
| 14 | C[C@@H](CN)C[C@H]1C[C@]1(C(=O)O)c1cn(-c2ccccc2)cn1 [Example 50, (1R,2S)-2-[(2R)-3-Amino-2-methylpropyl]-1-(1-phenyl-1H-imidazol-4-yl)cyclopropanecarboxylic acid] |  |
